Reference: US5972953A, “Brain cell protective agent” (priority 1993, dated 1999)
Like-named read-outs stand apart in the source and are kept apart here.

Tested on: cultured nerve cells (cerebral cortex)
Experiment: cells
Format: cell-based, Wistar rat
Conditions: Rattus norvegicus, Cerebral cortex neuron
[1] = 10 mM glutamate, 24 hours at 37° C., LDH leakage, read-out: ED50 (the source's name)

Structure (SMILES)	EC50 [1] [nM]	EC50 (24 h, read-out: ED50) [nM]
CCCCN(C(=O)/C=C/c1cccc(C(F)(F)F)c1)[C@@H]1CC[C@@]2(O)[C@H]3Cc4ccc(O)c5c4[C@@]2(CCN3CC2CC2)[C@H]1O5 [Compound 66, 17-cyclopropylmethyl-3,14β-dihydroxy-4,5α-epoxy-6β-(N-butyl-3-trifluoromethylcinnamamido)morphinan]	330	–
O=C(/C=C/c1cccc(C(F)(F)F)c1)N(CCc1ccccc1)[C@@H]1CC[C@@]2(O)[C@H]3Cc4ccc(O)c5c4[C@@]2(CCN3CC2CC2)[C@H]1O5 [Compound 67, 17-cyclopropylmethyl-3,14β-dihydroxy-4,5α-epoxy-6β-[N-(2-phenethyl)-3-trifluoromethylcinnamamido]morphinan]	100	–
O=C(/C=C/c1cccc(C(F)(F)F)c1)N(CC1CCCCC1)[C@@H]1CC[C@@]2(O)[C@H]3Cc4ccc(O)c5c4[C@@]2(CCN3CC2CC2)[C@H]1O5 [Compound 68, 17-cyclopropylmethyl-3,14β-dihydroxy-4,5α-epoxy-6β-(N-cyclohexylmethyl-3-trifluoromethylcinnamamido)morphinan]	–	100
O=C(/C=C/c1cccc(C(F)(F)F)c1)N(CCCc1ccccc1)[C@@H]1CC[C@@]2(O)[C@H]3Cc4ccc(O)c5c4[C@@]2(CCN3CC2CC2)[C@H]1O5 [Compound 69, 17-cyclopropylmethyl-3,14β-dihydroxy-4,5α-epoxy-6β-[N-(3-phenylpropyl)-3-trifluoromethylcinnamamido]-morphinan]	160	–
CCCCCN(C(=O)CCCCCc1ccccc1)[C@@H]1CC[C@@]2(O)[C@H]3Cc4ccc(O)c5c4[C@@]2(CCN3CC2CC2)[C@H]1O5 [Compound 70, 17-cyclopropylmethyl-3,14β-dihydroxy-4,5α-epoxy-6β-(N-pentyl-6-phenylhexanoamido)morphinan]	190	–
O=C(CCCCCc1ccccc1)N(CC1CCCCC1)[C@@H]1CC[C@@]2(O)[C@H]3Cc4ccc(O)c5c4[C@@]2(CCN3CC2CC2)[C@H]1O5 [Compound 71, 17-cyclopropylmethyl-3,14β-dihydroxy-4,5α-epoxy-6β-(N-cyclohexylmethyl-6-phenylhexanoamido)morphinan]	100	–
O=C(CCCCCc1ccccc1)N(CCCc1ccccc1)[C@@H]1CC[C@@]2(O)[C@H]3Cc4ccc(O)c5c4[C@@]2(CCN3CC2CC2)[C@H]1O5 [Compound 72, 17-cyclopropylmethyl-3,14β-dihydroxy-4,5α-epoxy-6β-[N-(3-phenylpropyl)-6-phenylhexanoamido)morphinan]	110	–
O=C(CCCCCc1ccccc1)N(CCCCc1ccccc1)[C@@H]1CC[C@@]2(O)[C@H]3Cc4ccc(O)c5c4[C@@]2(CCN3CC2CC2)[C@H]1O5 [Compound 73, 17-cyclopropylmethyl-3,14β-dihydroxy-4,5α-epoxy-6β-[N-(4-phenylbutyl)-6-phenylhexanoamido)morphinan]	140	–
O=C(CCCCCc1ccccc1)N(CC(c1ccccc1)c1ccccc1)[C@@H]1CC[C@@]2(O)[C@H]3Cc4ccc(O)c5c4[C@@]2(CCN3CC2CC2)[C@H]1O5 [Compound 74, 17-cyclopropylmethyl-3,14β-dihydroxy-4,5α-epoxy-6β-[N-(2,2-diphenylethyl)-6-phenylhexanoamido)morphinan]	220	–
CCC/C=C/C(=O)N(C)[C@@H]1CC[C@@]2(O)[C@H]3Cc4ccc(O)c5c4[C@@]2(CCN3CC2CC2)[C@H]1O5 [Compound 75, 17-cyclopropylmethyl-3,14β-dihydroxy-4,5α-epoxy-6β-(N-methyl-trans-2-hexenoamido)morphinan]	16500	–
CN(C(=O)/C=C/c1ccccc1)[C@@H]1CC[C@@]2(O)[C@H]3Cc4ccc(O)c5c4[C@@]2(CCN3CC2CC2)[C@H]1O5 [Compound 76, 17-cyclopropylmethyl-3,14β-dihydroxy-4,5α-epoxy-6β-(N-methylcinnamamido)morphinan]	6790	–
CN(C(=O)/C=C/c1cccc(F)c1)[C@@H]1CC[C@@]2(O)[C@H]3Cc4ccc(O)c5c4[C@@]2(CCN3CC2CC2)[C@H]1O5 [Compound 79, 17-cyclopropylmethyl-3,14β-dihydroxy-4,5α-epoxy-6β-(N-methyl-3-fluorocinnamamido)morphinan]	–	12200
CN(C(=O)CC(=O)c1ccccc1)[C@@H]1CC[C@@]2(O)[C@H]3Cc4ccc(O)c5c4[C@@]2(CCN3CC2CC2)[C@H]1O5 [Compound 80, 17-cyclopropylmethyl-3,14β-dihydroxy-4,5α-epoxy-6β-(N-methylbenzoylacetoamido) morphinan]	7390	–
CN(C(=O)Cc1ccc2ccccc2c1)[C@@H]1CC[C@@]2(O)[C@H]3Cc4ccc(O)c5c4[C@@]2(CCN3CC2CC2)[C@H]1O5 [Compound 83, 17-cyclopropylmethyl-3,14β-dihydroxy-4,5α-epoxy-6β-(N-methyl-2-naphthylacetoamido)morphinan]	4690	–
CN(C(=O)Cc1cccc(Cl)c1)[C@@H]1CC[C@@]2(O)[C@H]3Cc4ccc(O)c5c4[C@@]2(CCN3CC2CC2)[C@H]1O5 [Compound 85, 17-cyclopropylmethyl-3,14β-dihydroxy-4,5α-epoxy-6β-(N-methyl-3-chlorophenylacetoamido) morphinan]	4220	–
CN(C(=O)Cc1cccc2ccccc12)[C@@H]1CC[C@@]2(O)[C@H]3Cc4ccc(O)c5c4[C@@]2(CCN3CC2CC2)[C@H]1O5 [Compound 86, 17-cyclopropylmethyl-3,14β-dihydroxy-4,5α-epoxy-6β-(N-methyl-1-naphthylacetoamido)morphinan]	7360	–

Structure (SMILES)	EC50 [1] [nM]	EC50 (24 h, read-out: ED50) [nM]
CN(C(=O)Cc1csc2ccccc12)[C@@H]1CC[C@@]2(O)[C@H]3Cc4ccc(O)c5c4[C@@]2(CCN3CC2CC2)[C@H]1O5 [Compound 87, 17-cyclopropylmethyl-3,14β-dihydroxy-4,5α-epoxy-6β-(N-methyl-3-benzo[b]thienylacetoamrido)morphinan]	2150	–
CN(C(=O)C1c2ccccc2-c2ccccc21)[C@@H]1CC[C@@]2(O)[C@H]3Cc4ccc(O)c5c4[C@@]2(CCN3CC2CC2)[C@H]1O5 [Compound 88, 17-cyclopropylmethyl-3,14β-dihydroxy-4,5α-epoxy-6β-(N-methyl-9-fluorenylamido) morphinan]	4640	–
CN(C(=O)Cc1c(F)c(F)c(F)c(F)c1F)[C@@H]1CC[C@@]2(O)[C@H]3Cc4ccc(O)c5c4[C@@]2(CCN3CC2CC2)[C@H]1O5 [Compound 89, 17-cyclopropylmethyl-3,14β-dihydroxy-4,5α-epoxy-6β-(N-methyl-2,3,4,5,6-pentafluorophenylacetoamido)morphinan]	6280	–
CN(C(=O)C#Cc1cccc(C(F)(F)F)c1)[C@@H]1CC[C@@]2(O)[C@H]3Cc4ccc(O)c5c4[C@@]2(CCN3CC2CC2)[C@H]1O5 [Compound 90, 17-Cyclopropylmethyl-3,14β-dihydroxy-4,5α-epoxy-6β-[N-methyl-3-(3-trifluoromethylphenyl)propiolamido]morphinan]	4370	–
C=CCN1CC[C@]23c4c5ccc(O)c4O[C@H]2[C@H](N(C)C(=O)Cc2ccc(Cl)c(Cl)c2)CC[C@@]3(O)[C@H]1C5 [Compound 93, 17-allyl-3,14β-dihydroxy-4,5α-epoxy-6β-(N-methyl-3,4-dichlorophenylacetoamido)morphinan]	1500	–
CN(Cc1ccccc1)[C@H]1CC[C@@]2(O)[C@H]3Cc4ccc(O)c5c4[C@@]2(CCN3CC2CC2)[C@H]1O5 [Compound 95, 17-cyclopropylmethyl-3,14β-dihydroxy-4,5α-epoxy-6α-(N-methylbenzylamino)morphinan]	560	–
CC(C)CN(CCCCCCc1ccccc1)[C@H]1CC[C@@]2(O)[C@H]3Cc4ccc(O)c5c4[C@@]2(CCN3CC2CC2)[C@H]1O5 [Compound 97, 17-cyclopropylmethyl-3,14β-dihydroxy-4,5α-epoxy-6α-(N-isobutyl-6-phenylhexylamino)morphinan]	160	–
CC(C)CN(CCCCCCc1ccccc1)[C@@H]1CC[C@@]2(O)[C@H]3Cc4ccc(O)c5c4[C@@]2(CCN3CC2CC2)[C@H]1O5 [Compound 98, 17-cyclopropylmethyl-3,14β-dihydroxy-4,5α-epoxy-6β-(N-isobutyl-6-phenylhexylamino)morphinan]	160	–
CN(C(=O)OCc1ccccc1)[C@H]1CC[C@@]2(O)[C@H]3Cc4ccc(O)c5c4[C@@]2(CCN3CC2CC2)[C@H]1O5 [Compound 99, 17-cyclopropylmethyl-3,14β-dihydroxy-4,5α-epoxy-6α-(N-methylbenzyloxycarbamido)morphinan]	400	–
COCCOC(=O)N(C)[C@H]1CC[C@@]2(O)[C@H]3Cc4ccc(O)c5c4[C@@]2(CCN3CC2CC2)[C@H]1O5 [Compound 100, 17-cyclopropylmethyl-3,14β-dihydroxy-4,5α-epoxy-6α-(N-methyl-2-methoxyethoxycarbamido)morphinan]	38800	–
CN(C(=O)Nc1ccc(Cl)c(Cl)c1)[C@H]1CC[C@@]2(O)[C@H]3Cc4ccc(O)c5c4[C@@]2(CCN3CC2CC2)[C@H]1O5 [Compound 103, 17-Cyclopropylmethyl-3,14β-dihydroxy-4,5α-epoxy-6α-[N-methyl-N'-(3,4-dichlorophenyl)ureido]morphinan]	540	–
CN(C(=O)NCc1ccccc1)[C@H]1CC[C@@]2(O)[C@H]3Cc4ccc(O)c5c4[C@@]2(CCN3CC2CC2)[C@H]1O5 [Compound 104, 17-Cyclopropylmethyl-3,14β-dihydroxy-4,5α-epoxy-6α-(N-methyl-N'-benzylureido)morphinan]	580	–
CN(C(=S)NCc1ccccc1)[C@H]1CC[C@@]2(O)[C@H]3Cc4ccc(O)c5c4[C@@]2(CCN3CC2CC2)[C@H]1O5 [Compound 105, 17-cyclopropylmethyl-3,14β-dihydroxy-4,5α-epoxy-6α-(N-methyl-N'-benzylthioureido)morphinan]	20600	–
CN(C(=S)NCc1ccccc1)[C@@H]1CC[C@@]2(O)[C@H]3Cc4ccc(O)c5c4[C@@]2(CCN3CC2CC2)[C@H]1O5 [Compound 106, 17-cyclopropylmethyl-3,14β-dihydroxy-4,5α-epoxy-6β-(N-methyl-N'-benzylthioureido)morphinan]	10900	–
CN([C@H]1CC[C@@]2(O)[C@H]3Cc4ccc(O)c5c4[C@@]2(CCN3CC2CC2)[C@H]1O5)S(=O)(=O)Cc1ccc(Cl)c(Cl)c1 [Compound 111, 17-cyclopropylmethyl-3,14β-dihydroxy-4,5α-epoxy-6α-(N-methyl-3,4-dichlorophenylmethanesulfonamido) morphinan]	540	–
